Data reported in patent US8895754B2, “Process to make UV radiation absorbing 2-phenyl-1,2,3,-benzotriazoles” (DSM IP Assets B.V., priority 2010, dated 2014).

Assay: Determination of the solubility in cosmetic solvents
Format: physicochemical
Details: saturated solution stirred 7 days at room temperature, concentration by HPLC; for solubility Finsolv TN: C12-15 Alkylbenzoate; for solubility Myritol 318: Capric/Caprylic Triglyceride
Protocol: 1.5 g of a cosmetic solvent (Capric/Caprylic Triglyceride (Mygliol 318) and C12-15 Alkylbenzoate (Finsolv TN)) is saturated with the respective Benzotriazol-derivative by adding 0.2 g portions while stirring at room temperature. The saturated solution is stirred for 7 days at room temperature. 1 ml of the supernatant is centrifuged and filtered in order to obtain a clear solution. The concentration of the Benzotriazol-derivative is determined by means of HPLC.

| SMILES | solubility Finsolv TN [%] | solubility Myritol 318 [%] |
| --- | --- | --- |
| Cc1cc(COC(=O)CC(C)C)c(O)c(-n2nc3ccccc3n2)c1 [Example 8, 3-Methyl-butyric Acid 3-(2H-benzotriazol-2-yl)-2-hydroxy-5-methyl-benzyl Ester] | 8 | 6 |
| Cc1cc(COCc2cc(C)cc(-n3nc4ccccc4n3)c2O)c(O)c(-n2nc3ccccc3n2)c1 [Example 9, 3,3′-Bis(2H-benzotriazol-2-yl)-2,2′-dihydroxy-5,5′-dimethylbenzyl Ether] | 0.02 | 0.01 |
| Cc1cc(COCCC(C)C)c(O)c(-n2nc3ccccc3n2)c1 [Example 4, 2-(2H-Benzotriazol-2-yl)-6-(3-methyl-butoxymethyl)-4-methyl-phenol] | 37 | 36 |
| Cc1cc(COCCC(C)C)c(O)c(-n2nc3ccc(Cl)cc3n2)c1 [Example 6, 2-(5-Chloro-2H-benzotriazol-2-yl)-4-methyl-6-(3-methyl-butoxymethyl)-phenol] | 19 | 12 |
| CCCCC(CC)C(=O)OCc1cc(C)cc(-n2nc3ccccc3n2)c1O (stereo not shown) [Example 7, 2-Ethyl-hexanoic Acid 3-(2H-benzotriazol-2-yl)-2-hydroxy-5-methyl-benzyl Ester] | 42 | 24 |
